We go through 2 molecules from PMC9785925, “Solubility and Thermal Stability of Thermotoga maritima MreB” (International Journal of Molecular Sciences, 2022).

Where only a bound is given, the exact number is not on record here.

Holding throughout (format): binding
Experiment [1] deals with T1, Tm-MreB (Thermotoga maritima, UniProt Q9WZ57).
T1 construct: recombinant in E. coli ArcticExpress (DE3), Ni-NTA purified, His-tag removed with PreScission protease; native purification
T1 sequence (Q9WZ57 1-336): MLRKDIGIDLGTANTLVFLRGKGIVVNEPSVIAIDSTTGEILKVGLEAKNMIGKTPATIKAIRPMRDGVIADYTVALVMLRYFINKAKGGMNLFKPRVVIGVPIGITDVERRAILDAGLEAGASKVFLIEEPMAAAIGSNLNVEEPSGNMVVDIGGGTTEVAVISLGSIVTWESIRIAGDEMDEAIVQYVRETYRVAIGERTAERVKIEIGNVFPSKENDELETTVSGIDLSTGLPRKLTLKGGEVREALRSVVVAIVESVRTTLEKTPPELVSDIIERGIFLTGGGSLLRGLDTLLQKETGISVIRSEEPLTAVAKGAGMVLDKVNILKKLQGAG
The experiment in a line: thermal denaturation, tryptophan fluorescence. Particulars: 2 mM ATP, salt-free (4 mM TRIS-HCl, 0.1 mM CaCl2, pH 7.5); printed as 90 °C≤. From the text:
thermal denaturation, tryptophan fluorescence on Tm-MreB

Experiment [2] has as its target T1, Tm-MreB. The experiment in a line: competition with TNP-ATP fluorescence, Langmuir single-site fit. The conditions noted are these: salt-free (4 mM TRIS-HCl, 0.1 mM CaCl2, pH 7.5), 20 µM protein, 1 µM TNP-ATP; competitive; unreliable (text and figure legend disagree). The source says: competition with TNP-ATP fluorescence, Langmuir single-site fit on Tm-MreB | we were able to determine the affinity of ATP for Tm-MreB

In experiment [3] the target is T1, Tm-MreB. In words: TNP-ATP fluorescence titration, Hill fit.

Consider `Nc1ncnc2c1ncn2[C@@H]1O[C@H](COP(=O)(O)OP(=O)(O)OP(=O)(O)O)[C@@H](O)[C@H]1O` [ATP], for which the “This Work (Tryptophan Signal)” value on Tm-MreB [1] is greater than 90 °C. Besides, at Tm-MreB [2], the affinity is reported as ~ 2 µM. Regarding `Nc1ncnc2c1ncn2[C@@H]1O[C@H](COP(=O)(O)OP(=O)(O)OP(=O)(O)O)[C@H]2OC3(O[C@H]21)C([N+](=O)[O-])=CC(=[N+]([O-])[O-])C=C3[N+](=O)[O-]` (stereo partly drawn) [TNP-ATP], the affinity on Tm-MreB [3], expressed as Kd, was 3.69 ± 0.04 µM.
